Assay in all cases: combination Emax (second highest fraction inhibited in the dose matrix, 72 h); higher = more inhibition; extreme values may be limits of the assay
The subject of experiment [1] is KARPAS-422 (B-Cell Non-Hodgkin's Lymphoma). The method, boiled down:
(§1)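 Cell lines in DMEM/F12 or RPMI with 10% FBS were plated in 1536-well plates, held 24 hours at 37°C, 5% CO2, then given two-drug dose matrices for 72 hours (DMSO typically 0.2%). Viability was read by CellTiter-Glo 2.0 luminescence and scaled as inhibition from 0 (vehicle wells) to 1 (blank wells). Combination Emax is the second-highest inhibition in the matrix; Bliss excess is observed combination effect minus expected EA + EB − EA·EB, EA and EB being single-agent effects.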

The test system of experiment [2] is NCI-H2066 (Squamous Cell Lung Carcinoma). The method, boiled down: as §1
The test system of experiment [3] is COR-L311 (Small Cell Lung Carcinoma). In a few lines: as §1
Experiment [4] has as its system TT2609-C02 (Thyroid Gland Carcinoma). In a few lines:
as §1

For a further experiment, the system named is PA-1 (Ovarian Carcinoma). In a few lines: as §1
The test system of experiment [5] is BICR22 (Oral Cavity Carcinoma). The method, boiled down: as §1
In the next experiment the test system is LN-405 (Glioblastoma). In a few lines: as §1
Experiment [6] relates to NCI-H64 (Small Cell Lung Carcinoma). The method, boiled down: as §1
The subject of a further experiment is FU97 (Gastric Carcinoma). The method, boiled down:
as §1

The test system of experiment [7] is A549 (Lung Adenocarcinoma). The method, boiled down:
as §1

For a further experiment, the system named is CAS-1 (Glioblastoma). In a few lines:
as §1

The next experiment has as its system U-2-OS (Osteosarcoma). In a few lines:
as §1

The subject of experiment [8] is CAPAN-2 (Pancreatic Carcinoma). The method, boiled down: as §1
For experiment [9], the system named is ONS-76 (Other Solid Carcinomas). In a few lines:
as §1

The subject of experiment [10] is COLO-320-HSR (Colorectal Carcinoma). The method, boiled down: as §1
For experiment [11], the system named is HCC1954 (Breast Carcinoma). The method, boiled down:
as §1

Experiment [12] concerns NCI-H1650 (Lung Adenocarcinoma). In a few lines:
as §1

Experiment [13] has as its system ECC10 (Gastric Carcinoma). The method, boiled down:
as §1

Experiment [14] concerns SK-MES-1 (Squamous Cell Lung Carcinoma). The method, boiled down: as §1
Experiment [15] has as its system OS-RC-2 (Kidney Carcinoma). In a few lines:
as §1

The structures appear in SMILES notation.

As to `Cn1cnc2c(F)c(Nc3ccc(Br)cc3Cl)c(C(=O)NOCCO)cc21` [Selumetinib] + CC(C)n1c(=O)n(C)c2cnc3cc(F)c(-c4ccc(OCCCN5CCCCC5)nc4)cc3c21 [AZD1390] (first compound max 10 µM, 7x7, partner max 0.3 µM), the “combination Emax” value in experiment [1] was 0.123; in experiment [2], 0.254; in experiment [3], 0.109; in experiment [4] it was 0.663; with PA-1 (Ovarian Carcinoma) it was 0.276; in experiment [5], 0.334. The “combination Emax” value with LN-405 (Glioblastoma) came out at 0.129; in experiment [6], 0.105; in the experiment with FU97 (Gastric Carcinoma) it was 0.273; in experiment [7], 0.761; in the experiment on CAS-1 (Glioblastoma), 0.241; in the experiment with U-2-OS (Osteosarcoma), 0.577. Also, the “combination Emax” value in experiment [8] was found to be 0.378; in experiment [9] it was 0.713; in [10], 0.181; in experiment [11] it was 0.227; in [12], 0.132; in [13] it was 0.202. Besides, the “combination Emax” value in [14] amounted to 0.464; in experiment [15], 0.158.

On to `Cn1cnc2c(F)c(Nc3ccc(Br)cc3Cl)c(C(=O)NOCCO)cc21` [Selumetinib] + CCN(CCO)CCCOc1ccc2c(Nc3cc(CC(=O)Nc4cccc(F)c4)[nH]n3)ncnc2c1 [AZD2811] (first compound max 10 µM, 7x7, partner max 1 µM), for which the “combination Emax” value is 0.263 in experiment [1]; 0.286 in experiment [2]; 0.733 in experiment [3]; 0.622 in [4]; 0.654 in the experiment with PA-1 (Ovarian Carcinoma); 0.538 in [5]. Further, the “combination Emax” value in the experiment with LN-405 (Glioblastoma) was 0.242; in [6], 0.516; with FU97 (Gastric Carcinoma), 0.305; in [7] it was 0.807; with CAS-1 (Glioblastoma), 0.277; in the experiment on U-2-OS (Osteosarcoma), 0.661. The “combination Emax” value in experiment [8] was 0.407; in [9], 0.728; in [10], 0.249; in experiment [11] it was 0.29; in experiment [12], 0.213; in experiment [13], 0.841. In addition, the “combination Emax” value was 0.511 in experiment [14] and 0.225 in experiment [15].

For `Cn1cnc2c(F)c(Nc3ccc(Br)cc3Cl)c(C(=O)NOCCO)cc21` [Selumetinib] + C[C@@H]1COCCN1C2=NC(=NC(=C2)C3(CC3)[S@](=N)(=O)C)C4=C5C=CNC5=NC=C4 [AZD6738] (first compound max 10 µM, 7x7, partner max 10 µM), the “combination Emax” value in [1] stood at 0.519; in experiment [2], 0.43; in experiment [3], 0.32; in experiment [4], 0.506; in the experiment with PA-1 (Ovarian Carcinoma) it was 0.855; in experiment [5] it was 0.722. Besides, the “combination Emax” value in the experiment with LN-405 (Glioblastoma) turned out to be 0.405; in experiment [6], 0.808; in the experiment with FU97 (Gastric Carcinoma), 0.333; in experiment [7] it was 0.875; with CAS-1 (Glioblastoma), 0.545; in the experiment on U-2-OS (Osteosarcoma), 0.624. For the same compound, the “combination Emax” value stood at 0.428 in [8]; 0.771 in experiment [9]; 0.371 in experiment [10]; 0.432 in experiment [11]; 0.333 in experiment [12]; 0.443 in [13]. The “combination Emax” value in experiment [14] was 0.687; in experiment [15], 0.304.

`CC1(C)CCC(CN2CCN(c3ccc(C(=O)NS(=O)(=O)c4ccc(NCC5CCOCC5)c([N+](=O)[O-])c4)c(Oc4cnc5[nH]ccc5c4)c3)CC2)=C(c2ccc(Cl)cc2)C1` [Venetoclax] + C1CN(CCC1(C(=O)N[C@@H](CCO)C2=CC=C(C=C2)Cl)N)C3=NC=NC4=C3C=CN4 [Capivasertib] (first compound max 1 µM, 7x7, partner max 3 µM): the “combination Emax” value in experiment [1] is 0.917; in [2], 0.424; in [3], 0.842; in [4] it was 0.139; in the experiment on PA-1 (Ovarian Carcinoma), 0.636; in experiment [5] it was 0.272. For the same compound, the “combination Emax” value with LN-405 (Glioblastoma) came to 0.429; in experiment [6] it was 0.361; in the experiment with FU97 (Gastric Carcinoma) it was 0.533; in experiment [7], 0.36; in the experiment on CAS-1 (Glioblastoma) it was 0.407; in the experiment on U-2-OS (Osteosarcoma) it was 0.263. The “combination Emax” value in [8] was determined as 0.154; in experiment [9], 0.761; in experiment [10] it was 0.0935; in experiment [11], 0.558; in experiment [12] it was 0.164; in experiment [13], 0.959. Also, the figures for the “combination Emax” value in [14] and in experiment [15] were 0.202 and 0.354, respectively.

`CC1(C)CCC(CN2CCN(c3ccc(C(=O)NS(=O)(=O)c4ccc(NCC5CCOCC5)c([N+](=O)[O-])c4)c(Oc4cnc5[nH]ccc5c4)c3)CC2)=C(c2ccc(Cl)cc2)C1` [Venetoclax] + C=CCn1c(=O)c2cnc(Nc3ccc(N4CCN(C)CC4)cc3)nc2n1-c1cccc(C(C)(C)O)n1 [AZD1775] (first compound max 1 µM, partner max 1 µM): the “combination Emax” value in experiment [1] came to 0.995; in [2] it was 0.203; in experiment [3], 0.808; in experiment [4], 0.639; with PA-1 (Ovarian Carcinoma), 0.847; in [5], 0.782. The “combination Emax” value in the experiment with LN-405 (Glioblastoma) amounted to 0.326; in [6] it was 0.942; in the experiment with FU97 (Gastric Carcinoma), 0.626; in experiment [7] it was 0.406; in the experiment on CAS-1 (Glioblastoma) it was 0.615; in the experiment with U-2-OS (Osteosarcoma), 0.679. Further, the “combination Emax” value worked out at 0.453 in experiment [8]; 0.781 in [9]; 0.801 in [10]; 0.364 in experiment [11]; 0.433 in experiment [12]; 0.989 in experiment [13]. Further, the “combination Emax” value was 0.565 in experiment [14] and 0.326 in experiment [15].

On to `CC1(C)CCC(CN2CCN(c3ccc(C(=O)NS(=O)(=O)c4ccc(NCC5CCOCC5)c([N+](=O)[O-])c4)c(Oc4cnc5[nH]ccc5c4)c3)CC2)=C(c2ccc(Cl)cc2)C1` [Venetoclax] + CCN(CCO)CCCOc1ccc2c(Nc3cc(CC(=O)Nc4cccc(F)c4)[nH]n3)ncnc2c1 [AZD2811] (first compound max 1 µM, 7x7, partner max 1 µM), for which the “combination Emax” value in experiment [1] turned out to be 0.922; in [2], 0.226; in experiment [3], 0.927; in experiment [4], 0.418; in the experiment on PA-1 (Ovarian Carcinoma) it was 0.527; in experiment [5] it was 0.492. In addition, the “combination Emax” value turned out to be 0.276 in the experiment with LN-405 (Glioblastoma); 0.792 in experiment [6]; 0.413 in the experiment on FU97 (Gastric Carcinoma); 0.461 in [7]; 0.271 in the experiment with CAS-1 (Glioblastoma); 0.257 in the experiment with U-2-OS (Osteosarcoma). Also, the “combination Emax” value in experiment [8] worked out at 0.204; in [9] it was 0.698; in experiment [10], 0.156; in [11], 0.293; in experiment [12], 0.207; in experiment [13], 1. Moreover, the “combination Emax” value in [14] is 0.223; in [15], 0.232.

The record behind these values is the supplement of paper PMC11061612.
